Target: Delta-type opioid receptor (Homo sapiens, UniProt P41143)
Assay: DOR antagonists, SAR follow-up, image-based (AID 2357)

Delta-type opioid receptor, sequence (P41143 whole entry): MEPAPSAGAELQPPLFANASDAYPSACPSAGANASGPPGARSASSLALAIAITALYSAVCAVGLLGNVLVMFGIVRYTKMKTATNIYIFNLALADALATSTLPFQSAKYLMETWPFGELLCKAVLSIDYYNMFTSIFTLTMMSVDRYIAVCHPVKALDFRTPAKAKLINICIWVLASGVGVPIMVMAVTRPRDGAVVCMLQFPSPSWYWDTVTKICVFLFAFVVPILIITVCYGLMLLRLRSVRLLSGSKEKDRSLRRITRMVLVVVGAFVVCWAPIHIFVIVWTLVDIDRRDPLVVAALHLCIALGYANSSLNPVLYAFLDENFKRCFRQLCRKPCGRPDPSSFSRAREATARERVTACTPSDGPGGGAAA

Row | IC50 [µM] | SMILES
1 | 32 | CCC(N=Nc1ccnc2cc(Cl)ccc12)c1ccc(O)cc1 (configuration not stated) [4-[1-[2-(7-chloroquinolin-4-yl)hydrazinyl]propylidene]cyclohexa-2,5-dien-1-one]
2 | 18.9 | Oc1ccc(CN=Nc2ccnc3cc(Cl)ccc23)cc1O [(4Z)-4-[[2-(7-chloroquinolin-4-yl)hydrazinyl]methylidene]-2-hydroxycyclohexa-2,5-dien-1-one]
